PubChem BioAssay (NCI)
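Cells were grown in 96-well plates and exposed to each compound for 48 hours at five concentrations; endpoints were interpolated linearly between bracketing concentrations, or set to the highest concentration if not reached. The concentration for full growth arrest is given as TGI.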

Assays:
Experiment in all cases: NCI anticancer screen, dose series, 48 h
K-562 leukemia = tested on: K-562 leukemia
COLO 205 colon = tested on: COLO 205 colon
RPMI-8226 leukemia = tested on: RPMI-8226 leukemia
SK-MEL-2 melanoma = tested on: SK-MEL-2 melanoma
M14 melanoma = tested on: M14 melanoma
TK-10 renal = tested on: TK-10 renal
SK-MEL-28 melanoma = tested on: SK-MEL-28 melanoma
UACC-62 melanoma = tested on: UACC-62 melanoma
SF-539 CNS = tested on: SF-539 CNS
OVCAR-4 ovarian = tested on: OVCAR-4 ovarian
SF-268 CNS = tested on: SF-268 CNS
LOX IMVI melanoma = tested on: LOX IMVI melanoma
KM12 colon = tested on: KM12 colon
DLD-1 colon = tested on: DLD-1 colon
HCT-15 colon = tested on: HCT-15 colon
SW-620 colon = tested on: SW-620 colon
SNB-75 CNS = tested on: SNB-75 CNS
CCRF-CEM leukemia = tested on: CCRF-CEM leukemia
SF-295 CNS = tested on: SF-295 CNS
HOP-92 NSCLC = tested on: HOP-92 NSCLC
HCT-116 colon = tested on: HCT-116 colon
DMS 114 small cell lung = tested on: DMS 114 small cell lung
HT29 colon = tested on: HT29 colon
A549 NSCLC = tested on: A549 NSCLC
HCC-2998 colon = tested on: HCC-2998 colon
NCI-H23 lung = tested on: NCI-H23 lung
MALME-3M melanoma = tested on: MALME-3M melanoma
NCI-H460 lung = tested on: NCI-H460 lung
CAKI-1 renal = tested on: CAKI-1 renal
SK-MEL-5 melanoma = tested on: SK-MEL-5 melanoma
UACC-257 melanoma = tested on: UACC-257 melanoma
UO-31 renal = tested on: UO-31 renal
MOLT-4 leukemia = tested on: MOLT-4 leukemia
U251 CNS = tested on: U251 CNS
NCI-H226 lung = tested on: NCI-H226 lung
SN12C renal = tested on: SN12C renal
IGROV1 ovarian = tested on: IGROV1 ovarian
EKVX NSCLC = tested on: EKVX NSCLC
SNB-78 CNS = tested on: SNB-78 CNS
OVCAR-5 ovarian = tested on: OVCAR-5 ovarian
KM20L2 colon = tested on: KM20L2 colon
LXFL 529 NSCLC = tested on: LXFL 529 NSCLC
HOP-62 NSCLC = tested on: HOP-62 NSCLC
SR leukemia = tested on: SR leukemia
DMS 273 small cell lung = tested on: DMS 273 small cell lung
ACHN renal = tested on: ACHN renal
M19-MEL melanoma = tested on: M19-MEL melanoma
A498 renal = tested on: A498 renal
RXF 393 renal = tested on: RXF 393 renal
HL-60(TB) leukemia = tested on: HL-60(TB) leukemia
OVCAR-3 ovarian = tested on: OVCAR-3 ovarian
HOP-18 NSCLC = tested on: HOP-18 NSCLC
786-0 renal = tested on: 786-0 renal
OVCAR-8 ovarian = tested on: OVCAR-8 ovarian
SK-OV-3 ovarian = tested on: SK-OV-3 ovarian
SNB-19 CNS = tested on: SNB-19 CNS
XF 498 CNS = tested on: XF 498 CNS
NCI-H522 lung = tested on: NCI-H522 lung

Measured: TGI

COP(=O)(CC(=O)C1OC(C)(C)OC1C(O)COCc1ccccc1)OC (stereo not drawn)
> 100 µM: K-562 leukemia | COLO 205 colon | RPMI-8226 leukemia | SK-MEL-2 melanoma | M14 melanoma | TK-10 renal | SK-MEL-28 melanoma | UACC-62 melanoma | SF-539 CNS | OVCAR-4 ovarian | SF-268 CNS | LOX IMVI melanoma | KM12 colon | DLD-1 colon | HCT-15 colon | SW-620 colon | SNB-75 CNS | CCRF-CEM leukemia | SF-295 CNS | HOP-92 NSCLC | HCT-116 colon | DMS 114 small cell lung | HT29 colon | A549 NSCLC | HCC-2998 colon | NCI-H23 lung | MALME-3M melanoma | NCI-H460 lung | CAKI-1 renal | SK-MEL-5 melanoma | UACC-257 melanoma | UO-31 renal | MOLT-4 leukemia | U251 CNS | NCI-H226 lung | SN12C renal | IGROV1 ovarian | EKVX NSCLC | SNB-78 CNS | OVCAR-5 ovarian | KM20L2 colon | LXFL 529 NSCLC | HOP-62 NSCLC | SR leukemia | DMS 273 small cell lung | ACHN renal | M19-MEL melanoma | A498 renal | RXF 393 renal | HL-60(TB) leukemia | OVCAR-3 ovarian | HOP-18 NSCLC | 786-0 renal | OVCAR-8 ovarian

CCOC(=O)C(Cc1c(C=O)[nH]c2ccccc12)(NC(=O)c1ccccc1)C(=O)OCC
33.7 µM: M14 melanoma
37.2 µM: HT29 colon
45.9 µM: NCI-H226 lung
62.4 µM: UO-31 renal
39.5 µM: SF-268 CNS
26.6 µM: SN12C renal
39 µM: CCRF-CEM leukemia | DMS 114 small cell lung
42.2 µM: A549 NSCLC
59.7 µM: NCI-H460 lung
25 µM: DLD-1 colon
34.7 µM: COLO 205 colon | 786-0 renal
25.5 µM: U251 CNS
33 µM: SF-295 CNS
65.7 µM: OVCAR-8 ovarian
24.5 µM: SK-MEL-5 melanoma
43.7 µM: IGROV1 ovarian
34.2 µM: SK-MEL-28 melanoma
30.3 µM: SF-539 CNS
32.1 µM: SW-620 colon | XF 498 CNS
31.8 µM: M19-MEL melanoma
69.9 µM: TK-10 renal
26.9 µM: KM12 colon
35.3 µM: OVCAR-5 ovarian
79.8 µM: SK-OV-3 ovarian
18.4 µM: SNB-19 CNS
31.3 µM: HOP-92 NSCLC
45.2 µM: K-562 leukemia
> 100 µM: RPMI-8226 leukemia | SR leukemia | HL-60(TB) leukemia
42.7 µM: EKVX NSCLC
40.3 µM: OVCAR-3 ovarian
26 µM: RXF 393 renal
39.2 µM: UACC-257 melanoma
29.8 µM: HCT-15 colon
24.6 µM: HCC-2998 colon
39.3 µM: ACHN renal
32.4 µM: SK-MEL-2 melanoma
37.1 µM: NCI-H23 lung | MOLT-4 leukemia
33.9 µM: MALME-3M melanoma

Nc1cc(C(=O)NC2C3CC4CC(C3)CC2C4)[nH]c(=S)n1 (stereo not drawn)
> 100 µM: K-562 leukemia | SK-OV-3 ovarian | M14 melanoma | SK-MEL-28 melanoma | SF-539 CNS | OVCAR-4 ovarian | SF-268 CNS | DLD-1 colon | HCT-15 colon | SW-620 colon | SNB-75 CNS | CCRF-CEM leukemia | HOP-92 NSCLC | HCT-116 colon | HT29 colon | A549 NSCLC | HCC-2998 colon | NCI-H23 lung | MALME-3M melanoma | NCI-H460 lung | CAKI-1 renal | SK-MEL-5 melanoma | UACC-257 melanoma | UO-31 renal | MOLT-4 leukemia | U251 CNS | NCI-H226 lung | NCI-H522 lung | SN12C renal | IGROV1 ovarian | EKVX NSCLC | SNB-78 CNS | KM20L2 colon | LXFL 529 NSCLC | HOP-62 NSCLC | SNB-19 CNS | SR leukemia | M19-MEL melanoma | A498 renal | RXF 393 renal | HL-60(TB) leukemia | OVCAR-3 ovarian | 786-0 renal | XF 498 CNS | OVCAR-8 ovarian
